{"source": "patent US7049311B1", "about": "“Pyrrolbenzodiazepines” (Spirogen Limited, priority 1998, dated 2006)", "test_system": "human tumour cells cultivated in hollow fibres implanted in mice", "assay": "NCI Hollow Fibre Assay", "assay_type": "in vivo", "description": "The Biological testing Branch of the Developmental Therapeutics Program of the NCI has adopted a preliminary in vivo screening tool for assessing the potential anticancer activity of compounds identified by the large scale in vitro cell screen. For these assays, human tumour cells are cultivated in polyvinylidene (PVDF) hollow fibres, and a sample of each cell line is implanted into each of two physiologic compartments (intraperitoneal and subcutaneaous) in mice. Each test mouse received a total of 6 fibres (3 intraperitoneally and 3 subcutaneously) representing 3 distinct cancer cell lines. These mice are treated with potential antitumour compounds at each of 2 test doses by the intraperitoneal route using a QD×4 treatment schedule. Vehicle controls consist of 6 mice receiving the compound diluent only. The fibre cultures are collected on the day following the last day of treatment. To assess anticancer effects, the viable cell mass is determined for each of the cell lines using a formazyn dye (MTT) conversion assay. From this, the % T/C can be calculated using the average optical density of compound treated samples divided by the average optical; density of the vehicle controls. In addition, the net increase in cell mass can be determined for each sample, as a sample of fibre cultures are assessed for viable cell mass on the day of implantation into mice. Thus, the cytostatic and cytocidal capacities of the test compound can be assessed.\nGenerally, each compound is tested against a minimum of 12 human cancer cell lines. This represents a total of 4 experiments since each experiment contains 3 cell lines. The data are reported as % T/C for each of the 2 compound doses against each of the cell lines with separate values calculated for the intraperitoneal and subcutaneous samples.\nCompounds are selected for further in vivo testing in standard subcutaneous xenograft models on the basis of several hollow fibre assay criteria. These include: (1) a % T/C of 50 or less in 10 of the 48 possible test combinations (12 cell lines×2 sites×2 Compound doses); (2) activity at a distance (intraperitoneal drug/subcutaneous culture) in a minimum of 4 of the 24 possible combinations; and/or (3) a net cell kill of 1 or more of the cell lines in either implant site. To simplify evaluation, a points system has been adopted which allows rapid evaluation of the activity of a given compound. For this, a value of 2 is assigned for each compound dose which results in a 50% or greater reduction in viable cell mass. The intraperitoneal and subcutaneous samples are scored separately so that criteria (1) and (2) can be evaluated. Compounds with a combined IP+SC score of 20, a SC score of 8 or a net cell kill of one or more cell lines are referred for xenograft testing. […] In addition to these criteria, other factors (e.g. unique structure, mechanism of action) may result in referral of a compound for xenograft testing without the compound meeting these criteria.", "data": [{"smiles": "C=C1C[C@H]2C=Nc3cc(OCCCOc4cc5c(cc4OC)C(=O)N4CC(=C)C[C@H]4C=N5)c(OC)cc3C(=O)N2C1", "note": "[UP2001 (80)]", "values": [{"measurement": "Total score", "setting": "combined IP+SC score", "result": 54}, {"measurement": "IP score", "setting": "intraperitoneal fibres, 2 points per dose giving 50% or greater reduction in viable cell mass", "result": 40}, {"measurement": "SC score", "setting": "subcutaneous fibres, 2 points per dose giving 50% or greater reduction in viable cell mass", "result": 14}]}]}
